How the values were obtained:
[1] = Body weight change and tolerability in A549 xenograft study; type: in vivo, Female Balb/c nude mice; settings: for treatment related body weight loss (trBWL) category: palbociclib 25 mg/kg QD, Formula I 10 mg/kg BID and 30 mg/kg QD, both combinations with palbociclib 25 mg/kg QD
Experimental: Treatment: Treatment started on the day of randomization. The treatment start day was denoted as treatment day 0. Mice were dosed by oral administration of vehicle control solution, the compound of Formula I at 10 mg/kg/dose BID, the compound of Formula I at 30 mg/kg QD, or palbociclib at 25 mg/kg QD monotherapy treatment groups. Two additional groups received combination treatment of the compound of Formula I and palbociclib, one dosing the compound of Formula I at 10 mg/kg/dose BID with palbociclib at 25 mg/kg QD and the other dosing the compound of Formula I at 30 mg/kg QD with palbociclib at 25 mg/kg QD. The dosing volume for each compound was 5 mL/kg and interval of BID regimen was 8 hours. Palbociclib was dosed at one-hour post the compound of Formula I QD or first BID dose in combination groups. […] The study was terminated on treatment day 28 as being defined in the study protocol.
(§1) Measurements and calculations: Conditions of animal health and clinical signs of toxicity were monitored daily. Subcutaneous tumor volumes and mouse body weights were measured twice a week by caliper and balance, respectively. Tumor volume, percent of tumor growth inhibition (% TGI), percent of tumor regression, percent of body weight change (% BWC), and treatment related body weight loss (% trBWL) were calculated based on following formulas:
[formula] [formula] [formula] • i. BWdx was body weight group mean at treatment day x • ii. BWd0 was body weight group mean at treatment day 0
Percentage of treatment related body weight loss at treatment day x (% trBWLdx) was calculated based on the following: • iii. If % BWC in the treatment group was positive at treatment day x: % trBWLdx=0% • iv. If % BWC was negative in both the control and treatment groups at treatment day • x:
Treatment related body weight loss (trBWL) was categorized based on the following criteria: x≤5% was no loss, 5%<x≤10% was mild loss, 10%<x≤20% was moderate loss and x>20% was severe loss.

[2] = tested on: KRAS^G12D mutated Gp2D cells; test: Clonogenic assay (colony formation), Gp2D; type: cell-based, human; settings: for colony formation (in words): 8000 cells per well, 14 days, crystal violet, various concentrations
Experimental: (§2) Cells and Reagents: The cell lines were obtained from ATCC (SW620 #CCL-227, A549 #CCL-185 and NCI-H441 #HTB-174). The cell lines, LS180 (ECACC #87021202) and Gp2D (ECACC #95090714). The cell line, CAL 27 was cultured in DMEM (Gibco #). SCC-4, SCC-15, SCC-25, SCC-9 cell lines were cultured in a 1:1 mixture of DMEM and Ham's F12 medium containing 1.2 g/L sodium bicarbonate, 2.5 mM L-glutamine, 15 mM HEPES and 0.5 mM sodium pyruvate supplemented with 400 ng/ml hydrocortisone, 90%; fetal bovine serum, 10% (Hyclone #SH-30071.03) and Penicillin/Streptomycin (Thermo Fisher #15070-063). The cells were maintained at 37° C./5% CO2.
(§3) Clonogenic assay: The cells were plated onto 6-well plates in 2 ml cell culture medium. The cells were incubated overnight and treated with various concentration of the compound of Formula I and Palbociclib. After 7 days incubation, the medium was replaced with fresh medium, cells were treated again with same concentration of the compound of Formula I and Palbociclib and incubated for additional 7 days. After 14 days of total incubation, the cells were washed with PBS twice and fixed 30 mins with 4% formaldehyde. The cells were washed twice with PBS and incubated with 0.1% crystal violet for 60 mins. After the crystal violet staining, the cells were washed five times with water and let it dry at room temperature. After the plates were dried, the crystal staining was de-stained with 1 ml of 10% acetic acid and absorbance was measured at 560 nm.
(§4) Cell lines from each of KRAS^G12D (LS513 and Gp2D), KRAS^G12S (A549) and KRAS^G12V (NCI-H441 and SW620) mutations were split onto 6-well plates in 2 ml cell culture medium. The cells were incubated overnight and treated with various concentration of the compound of Formula I and Palbociclib and assayed using the Clonogenic Assay protocol described above.
(§5) The LS-180 and Gp2D cells were split onto 6 well plates (4000 and 8000 calls per well respectively). After overnight incubation, the cells were treated with the compound of Formula I alone and treated in combination with palbociclib and colony formation was determined as mentioned in method. […] (FIGS. 4A&5A). […] There was a pronounced inhibition of colony formation (about 50%) observed with combination of the compound of Formula I and palbocilib treatment. […] There was a pronounced inhibition of colony formation (about 50%) observed with combination of the compound of Formula I and palbocilib treatment.

[3] = tested on: KRAS^G12V mutated NCI-H441 cells; test: Clonogenic assay (colony formation), NCI-H441; type: cell-based, human; settings: for colony formation (in words): NCI-H441, 8000 cells per well, 14 days, crystal violet, various concentrations
Experimental: as §2, §3, §4
(§6) The NCI-H441 and SW620 cells were split onto 6 well plates (8000 and 4000 calls per well respectively). After overnight incubation, the cells were treated with the compound of Formula I alone and treated in combination with palbociclib and colony formation was determined as mentioned in method. […] (FIGS. 2A&3A). […] There was a pronounced inhibition of colony formation (about 80%) observed with combination of the compound of Formula I and palbociclib treatment. […] There was a pronounced inhibition of colony formation (about 60%) observed with combination of the compound of Formula I and palbociclib treatment.

[4] = tested on: KRAS^G12V mutated SW620 cells; test: Clonogenic assay (colony formation), SW620; type: cell-based; settings: for colony formation (in words): SW620, 4000 cells per well, 14 days, crystal violet, various concentrations
Experimental: as §2, §3, §4, §6

[5] = tested on: KRAS^G12D mutated LS-180 cells; test: Clonogenic assay (colony formation), LS-180; type: cell-based; settings: for colony formation (in words): LS-180, 4000 cells per well, 14 days, crystal violet, various concentrations
Experimental: as §2, §3, §4, §5

[6] = tested on: KRAS^G12S mutant NSCLC xenograft model A549; test: Antitumor efficacy in A549 xenograft mouse model; type: in vivo, Female Balb/c nude mice; settings: 28 days
Experimental: Reagents: The vehicle/control article, 100 mM acetic acid in deionized water, with pH adjustment to 4.8-5.0, was prepared and stored under ambient conditions throughout the 28-day administration in mice. The test article compound of Formula I was freshly prepared in vehicle of 100 mM acetic buffer weekly and stored under ambient conditions. The combination agent palbociclib was freshly prepared in vehicle of 50 mM Sodium Lactate Buffer, pH 3.8-4.0 weekly and stored at 2-8° C.
Animals: Female Balb/c nude mice were purchased from the Beijing Vital River Laboratory Animal Technology Co., Ltd. Mice were hosted at special pathogen-free (SPF) environment of vivarium facility and acclimated to their new environment for at least 3 days prior to initiation of any experiments. Mice were between 6-8 weeks of age at the time of implantation.
Preparation of xenograft model: A549 was a human lung cancer cell line that harbored a KRASG12S mutation. The A549 cell line was purchased from the American Type Culture Collection (ATCC® CCL-185™). A549 cells were cultured in medium containing RPMI1640 plus 10% Fetal Bovine Serum (FBS) at 37° C. in an atmosphere of 5% CO2 in air. The medium was renewed every 2 to 3 days and tumor cells were routinely sub-cultured at a confluence of 80-90% by trypsin-EDTA. The cells growing in an exponential growth phase were harvested and counted for inoculation.
A549 tumor cells were implanted into mice subcutaneously. Briefly, 200 μL cell suspensions containing 5×10^6 tumor cells mixed with 50% Matrigel were subcutaneously implanted into the right flank of mouse using a syringe. Animal health and tumor growth were monitored daily. Tumor volume was measured twice a week by caliper when tumors were palpable and measurable. When tumor volumes reached a mean of 200 mm^3 (range of 152-259 mm^3), tumor-bearing mice were randomized into different groups with 8 mice in each group. The randomization date was denoted as treatment day 0.
Treatment: Treatment started on the day of randomization. The treatment start day was denoted as treatment day 0. Mice were dosed by oral administration of vehicle control solution, the compound of Formula I at 10 mg/kg/dose BID, the compound of Formula I at 30 mg/kg QD, or palbociclib at 25 mg/kg QD monotherapy treatment groups. Two additional groups received combination treatment of the compound of Formula I and palbociclib, one dosing the compound of Formula I at 10 mg/kg/dose BID with palbociclib at 25 mg/kg QD and the other dosing the compound of Formula I at 30 mg/kg QD with palbociclib at 25 mg/kg QD. The dosing volume for each compound was 5 mL/kg and interval of BID regimen was 8 hours. Palbociclib was dosed at one-hour post the compound of Formula I QD or first BID dose in combination groups. […] Per this practice, mice in the compound of Formula I at 10 mg/kg/dose BID monotherapy group and in the compound of Formula I at 10 mg/kg/dose BID with palbociclib at 25 mg/kg QD combination group were supplied with DietGel food starting on treatment day 20 and continuing through the remaining study period. Mice in the compound of Formula I at 30 mg/kg QD monotherapy group were supplied with DietGel food starting on treatment day 17 and continuing through the remaining study period. The study was terminated on treatment day 28 as being defined in the study protocol.
as §1, with “formulas: […]” for “formulas:”
Percent of tumor growth inhibition (% TGI) • vii.
[formula] • viii. TVTi was the group mean tumor volume (TV) of treatment group at last treatment day • ix. […]

[7] = tested on: KRAS^G12S mutated A549 cells; test: Clonogenic assay (colony formation), A549; type: cell-based, human; settings: for colony formation (in words): A549, 2000 cells per well, 14 days, crystal violet, various concentrations; for reduction of colony formation: A549, quantification FIG. 1B, each agent alone or combination, concentrations not given
Experimental: as §2, §3, §4
The A549 cells were split onto 6 well plates (2000 cells per well). After overnight incubation, the cells were treated with the compound of Formula I alone and treated in combination with palbociclib and colony formation was determined as mentioned in method. […] (FIG. 1A).

Q: Which results are given for `CC(=O)c1c(C)c2cnc(Nc3ccc(N4CCNCC4)cn3)nc2n(C2CCCC2)c1=O` [Palbociclib, reference compound]?
A: maximum trBWL ([1]; 28 days oral, palbociclib 25 mg/kg QD monotherapy): 400; treatment related body weight loss (trBWL) category ([1]; 28 days oral): no trBWL; colony formation (in words) [2]: inhibition of colony formation dose dependently; inhibition at 0.25 µM ([2]; Homo sapiens, palbociclib 250 nM alone, FIG. 5B): ~40%; inhibition at 0.1 µM ([3]; Homo sapiens, NCI-H441, palbociclib 100 nM alone, FIG. 2B): ~60%; colony formation (in words) [3]: inhibition of colony formation dose dependently; inhibition at 0.1 µM ([4]; Homo sapiens, SW-620, SW620, palbociclib 100 nM alone, FIG. 3B): ~40%; colony formation (in words) [4]: inhibition of colony formation dose dependently; inhibition at 0.25 µM ([5]; Homo sapiens, LS180, LS-180, palbociclib 250 nM alone, FIG. 4B): ~40%; colony formation (in words) [5]: inhibition of colony formation dose dependently; % TGI (last treatment day) ([6]; palbociclib 25 mg/kg QD oral): 15%; % Tumor regression (last treatment day) ([6]; palbociclib 25 mg/kg QD oral): 0%; colony formation (in words) [7]: inhibition of colony formation dose dependently; reduction of colony formation [7]: about 10%

Q: Which “clinical signs of toxicity or mortality” value ([1]; 28-day treatment period, both Formula I monotherapy groups and both combination groups) does the source give for `COCOC[C@H]1C[C@H]2COc3c(Sc4cnc(N5CCC6(CC5)CO[C@@H](C)[C@H]6N)c(CO)n4)ccnc3N2C1` [compound of Formula I, (3-((3S,4S)-4-amino-3-methyl-2-oxa-8-azaspiro[4.5]decan-8-yl)-6-(((6aS,8S)-8-((methoxymethoxy)methyl)-6a,7,8,9-tetrahydro-6H-pyrido[3,2-b]pyrrolo[1,2-d] [1,4]oxazin-4-yl)thio)pyrazin-2-yl)methanol] here?
A: no clinical signs of toxicity or mortality were observed

Q: What about the “treatment related body weight loss (trBWL) category” value ([1]; 28 days oral) of the same compound?
A: mild trBWL

Q: What about the “colony formation (in words)” value [2] of the same compound?
A: inhibited the colony formation minimally

Q: What about the “colony formation (treatment showed about x% of colony formation)” value ([2]; Formula I 250 nM alone, FIG. 5B) of the same compound?
A: about 20%

Q: What about the “colony formation (in words)” value [3] of the same compound?
A: inhibited the colony formation minimally

Q: What about the “colony formation on increasing the concentration of Formula I” value ([3]; NCI-H441, FIG. 2B) of the same compound?
A: robust inhibition of colony formation

Q: What about the “colony formation (treatment showed about x% of colony formation)” value ([3]; NCI-H441, Formula I 250 nM alone, FIG. 2B) of the same compound?
A: about 40%

Q: And the “colony formation (in words)” value [4]?
A: inhibited the colony formation minimally

Q: And the “colony formation (treatment showed about x% of colony formation)” value ([4]; SW620, Formula I 250 nM alone, FIG. 3B)?
A: about 10%

Q: What about the “colony formation on increasing the concentration of Formula I” value ([4]; SW620, single agent and combination, FIG. 3B) of the same compound?
A: robust inhibition of colony formation

Q: What about the “colony formation (in words)” value [5] of the same compound?
A: inhibited the colony formation minimally

Q: And the “colony formation (treatment showed about x% of colony formation)” value ([5]; LS-180, Formula I 250 nM alone, FIG. 4B)?
A: about 10%

Q: And the “% TGI (last treatment day)” value ([6]; Formula I 10 mg/kg BID oral)?
A: 52%

Q: What about the “% Tumor regression (last treatment day)” value ([6]; Formula I 10 mg/kg BID oral) of the same compound?
A: 0%

Q: What about the “% TGI (last treatment day)” value ([6]; Formula I 30 mg/kg QD oral) of the same compound?
A: 70%

Q: What about the “% Tumor regression (last treatment day)” value ([6]; Formula I 30 mg/kg QD oral) of the same compound?
A: 0%

Q: What about the “colony formation (in words)” value [7] of the same compound?
A: inhibited the colony formation minimally

Q: What about the “reduction of colony formation” value [7] of the same compound?
A: about 10%
